Measured values from the supplement of paper PMC10307832.

Assays:
Experiment in all cases: relative viability (nuclei count vs DMSO), 5 days (fraction); higher = more cells survive
AZD8055 + Pemetrexed = compound: COc1ccc(-c2ccc3c(N4CCOC[C@@H]4C)nc(N4CCOC[C@@H]4C)nc3n2)cc1CO [AZD8055] + Nc1nc2[nH]cc(CCc3ccc(C(=O)N[C@@H](CCC(=O)O)C(=O)O)cc3)c2c(=O)[nH]1 [Pemetrexed] (partner 0.2 µM)
How it was run: (§1)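 Relative viability divides the nuclei count in treated wells by that in vehicle wells. Lung cancer cell lines were seeded in 1536-well plates, dosed by pin tool the next day, and fixed and stained after 5 days in one step with final 0.05% Triton X-100, 1% formaldehyde and 1 ug/ml Hoechst. Dosing was a single drug or a fixed anchor-drug dose plus five library-drug doses (not always all listed) in √10 steps, and values are medians of duplicate plates imaged at 4×.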

AZD8055 + Navitoclax = compound: COc1ccc(-c2ccc3c(N4CCOC[C@@H]4C)nc(N4CCOC[C@@H]4C)nc3n2)cc1CO [AZD8055] + CC1(C)CCC(c2ccc(Cl)cc2)=C(CN2CCN(c3ccc(C(=O)NS(=O)(=O)c4ccc(N[C@H](CCN5CCOCC5)CSc5ccccc5)c(S(=O)(=O)C(F)(F)F)c4)cc3)CC2)C1 [Navitoclax] (partner 0.5 µM)
How it was run: as §1

AZD8055 + Linsitinib = compound: COc1ccc(-c2ccc3c(N4CCOC[C@@H]4C)nc(N4CCOC[C@@H]4C)nc3n2)cc1CO [AZD8055] + C[C@]1(O)C[C@@H](c2nc(-c3ccc4ccc(-c5ccccc5)nc4c3)c3c(N)nccn32)C1 [Linsitinib] (partner 1 µM)
How it was run: as §1

AZD8055 + Vorinostat = compound: COc1ccc(-c2ccc3c(N4CCOC[C@@H]4C)nc(N4CCOC[C@@H]4C)nc3n2)cc1CO [AZD8055] + O=C(CCCCCCC(=O)Nc1ccccc1)NO [Vorinostat] (partner 1 µM)
How it was run: as §1

Cell Line	relative viability (AZD8055 + Pemetrexed; first compound 0.01 µM)	relative viability (AZD8055 + Pemetrexed; first compound 0.03162 µM)	relative viability (AZD8055 + Pemetrexed; first compound 0.1 µM)	relative viability (AZD8055 + Pemetrexed; first compound 0.3162 µM)	relative viability (AZD8055 + Pemetrexed; first compound 1 µM)	relative viability (AZD8055 + Navitoclax; first compound 0.01 µM)	relative viability (AZD8055 + Navitoclax; first compound 0.03162 µM)	relative viability (AZD8055 + Navitoclax; first compound 0.1 µM)	relative viability (AZD8055 + Navitoclax; first compound 0.3162 µM)	relative viability (AZD8055 + Navitoclax; first compound 1 µM)	relative viability (AZD8055 + Linsitinib; first compound 0.01 µM)	relative viability (AZD8055 + Linsitinib; first compound 0.03162 µM)	relative viability (AZD8055 + Linsitinib; first compound 0.1 µM)	relative viability (AZD8055 + Linsitinib; first compound 0.3162 µM)	relative viability (AZD8055 + Linsitinib; first compound 1 µM)	relative viability (AZD8055 + Vorinostat; first compound 0.01 µM)	relative viability (AZD8055 + Vorinostat; first compound 0.03162 µM)	relative viability (AZD8055 + Vorinostat; first compound 0.1 µM)	relative viability (AZD8055 + Vorinostat; first compound 0.3162 µM)	relative viability (AZD8055 + Vorinostat; first compound 1 µM)
LOU-NH91	0.466	0.433	0.5	0.507	0.469	0.708	0.642	0.587	0.466	0.437	0.889	0.835	0.629	0.585	0.524	0.872	0.95	0.63	0.596	0.57
LU99A	0.227	0.211	0.235	0.177	0.169	0.69	0.517	0.232	0.164	0.191	0.316	0.306	0.196	0.203	0.184	0.385	0.259	0.225	0.186	0.153
LXF-289	1.11	0.996	0.935	0.765	0.651	0.979	0.995	0.831	0.694	0.529	1	0.997	0.812	0.568	0.515	0.745	0.754	0.709	0.523	0.515
NCI-H23	0.503	0.635	0.542	0.326	0.354	0.879	0.847	0.677	0.318	0.253	0.521	0.484	0.294	0.244	0.259	0.44	0.457	0.449	0.235	0.251
NCI-H322M	0.655	0.689	0.622	0.609	0.483	1.17	1.09	0.845	0.488	0.546	0.891	0.771	0.557	0.497	0.461	0.85	0.839	0.8	0.511	0.538
NCI-H441	0.273	0.247	0.232	0.234	0.205	0.748	0.955	0.464	0.334	0.251	0.515	0.337	0.346	0.203	0.33	0.985	0.72	0.534	0.346	0.246
NCI-H460	0.0514	0.0565	0.0535	0.0755	0.0693	1.19	0.892	0.523	0.121	0.0653	0.555	0.213	0.206	0.0409	0.0438	1.02	0.629	0.498	0.0504	0.0551
